According to patent US7581540B2, “Aerosol drug delivery device incorporating percussively activated heat packages” (Alexza Pharmaceuticals, Inc., priority 2004, dated 2009):
Like-named read-outs stand apart in the source and are kept apart here.

Experiments:
[1] = 25° C.; cited from earlier work
[2] = cited from earlier work
[3] = for average nicotine purity of the aerosol: maximum temperature 300° C., air flow 20 L/min
Description: The purity of nicotine in an aerosol produced by vaporizing thin films of (nicotine)2-ZnBr2 was also determined. The percent purity of nicotine in the aerosol was determined by comparing the area under the curve representing nicotine with the area under the curve for all other components separated by HPLC.
The coatings of (nicotine)2-ZnBr2 complex were vaporized by applying a current to the metal foil sufficient to heat the coatings to temperatures of 300° C., 350° C., and 400° C. The aerosol formed by vaporizing the coating in an air flow of 20 L/min was analyzed by collecting the aerosol on oxalic acid coated filters. The collected aerosol was extracted from the filters with 5 mL of an aqueous solution containing 0.1% TFA. A Varian HPLC system having a single XTerra RP18, 4.6×150 mm column, with an eluant solution comprising a 75% aqueous phase of perchloric acid solution with one ampoule of 1-octanesulfonic acid sodium salt concentrate at pH 2, and a 25% organic phase of acetonitrile was used. The HPLC was performed under isocratic run conditions for 20 minutes.

[4] = 350° C., air flow 28.3 L/min
Description: To coat metal foils, the (nicotine)2-ZnBr2 complex was dissolved in chloroform. Two separate coating thickness of the (nicotine)2-ZnBr2 complex on stainless steel were prepared. A 169.4 mg/mL solution of (nicotine)2-ZnBr2 complex in chloroform and a 338.8 mg/mL solution of (nicotine)2-ZnBr2 complex in chloroform were made. Exposure to light was minimized at all times during and after formation of these solutions. The (nicotine)2-ZnBr2 complex for each solution was hand coated onto 0.005 inch thick stainless foils using a 10 uL Hamilton syringe. 5.9 uL of the 169.4 mg/mL (nicotine)2-ZnBr2 complex solution was coated onto both sides of an area of 1.27 cm×2.3 cm of stainless steel. This corresponds to a 2 μm film thickness coating which contained about 1 mg of nicotine. Similarly, 8.8 μL of the 338.8 mg/mL (nicotine)2-ZnBr2 complex solution was coated onto both sides of an area of 1.27 cm×2.3 cm of stainless steel. This corresponds to a […] film thickness coating which contained about […] of nicotine The coatings were dried under vacuum for about 1 hour at 25° C. The coatings of (nicotine)2-ZnBr2 complex were stored in a vacuum for at least 30 minutes and protected from light prior to use.
The coatings of (nicotine)2-ZnBr2 complex were vaporized by applying a current of 13.0V to the metal foil sufficient to heat the coatings to temperature of 350° C. The aerosol formed by vaporizing the coating in an air flow of 28.3 L/min was analyzed by collected the aerosol on oxalic acid coated filters using an 8 stage Anderson impactor. […] After vaporization the filters were extracted with 5 mL of 0.1% trifluoroacetic acid/DI H2O and analyzed by HPLC.

[5] = airflow about 20 L/min
[6] = drug aerosol purity and recovered yield after vaporization from a percussively ignited heat package, HPLC; type: physicochemical
[7] = smokeless nicotine products (chewing tobacco, oral snuff, tobacco sachets), buccal absorption

In the case of `CN1CCCC1c1cccnc1` (stereo not shown) [nicotine], the vapor pressure [1] is listed as 0.0425 mmHg, the “time to attain nicotine blood level peak” value ([2]; cigarette smoking) is listed as at most 10 min and the “nicotine blood level peak” value ([2]; produced by cigarettes) is listed as 30 to 40 ng/mL. For the same molecule, the “maximum nicotine blood concentration” value [2, 7] was “approximately 12 ng/mL” and the “time of use to attain maximum nicotine blood concentration” value [2, 7] was “approximately 30 minutes”.
For `CN1CCCC1c1cccnc1.CN1CCCC1c1cccnc1.[Br][Zn][Br]` (stereo not shown) [(nicotine)2-ZnBr2], the “average nicotine purity of the aerosol” value ([3]; 2 μm thick thin film) was “about 99.5%”, the “average nicotine purity of the aerosol” value ([3]; 6 μm thick thin film) was “about 99.99%” and the “purity of nicotine aerosol from 6 μm film compared with 2 μm film” value ([3]; for a given vaporization temperature) was “greater”. For the same molecule, the “change of nicotine purity of the aerosol” value ([3]; thin film heated to a maximum temperature of greater than 300° C.) was “decreased”, the “MMAD of the nicotine aerosol” value ([4]; 2 μm thick film) was 2.00 and the “purity of the nicotine aerosol” value ([4]; 2 μm thick film) was “greater than 97%”. For the same molecule, the “MMAD of the nicotine aerosol” value ([4]; 6 μm thick film) was 1.79, the “purity of the nicotine aerosol” value ([4]; 6 μm thick film) was “greater than 97%” and the “average yield of nicotine in the aerosol” value ([5]; 2 μm thick thin film, temperature range 300° C. to 400° C.) was “about 60±7%”. For the same molecule, the “average yield of nicotine in the aerosol” value ([5]; 6 μm thick thin film, maximum temperature 300° C.) was “about 51±2%” and the “average yield of nicotine in the aerosol” value ([5]; 6 μm thick thin film, maximum temperature 400° C.) was “about 73±1%”.
In the case of `CC(C)C(=O)OCC(=O)[C@@]12O[C@H](C3CCCCC3)O[C@@H]1C[C@H]1[C@@H]3CCC4=CC(=O)C=C[C@]4(C)[C@H]3[C@@H](O)C[C@@]12C` [ciclesonide], the “purity of the resultant aerosol” value ([6]; percussively ignited heat package, greater than 800° C., air flow 20 L/min, film 1.58 μm alprazolam, 6.33 μm pramipexole, 2.53 μm ciclesonide) is reported as 85.6%.
For `Cc1nnc2n1-c1ccc(Cl)cc1C(c1ccccc1)=NC2` [alprazolam], the “purity of the resultant aerosol” value [6] was 96.8% and the “recovered yield of aerosol” value [6] was 100%.
